Results as given in ChEMBL document CHEMBL3621049, “Imidazole derivatives show anticancer potential by inducing apoptosis and cellular senescence” (2014).
Activity calls are given as the source filed them.

Columns and labels:
Assay type in all cases: functional, cell-based
CCRF-CEM = experiment: Growth inhibition of human CCRF-CEM cells at 10 uM by sulforhodamine B assay
HL-60(TB) = experiment: Growth inhibition of human HL-60(TB) cells at 10 uM by sulforhodamine B assay
K562 = experiment: Growth inhibition of human K562 cells at 10 uM by sulforhodamine B assay
MOLT-4 = experiment: Growth inhibition of human MOLT4 cells at 10 uM by sulforhodamine B assay
RPMI-8226 = experiment: Growth inhibition of human RPMI8226 cells at 10 uM by sulforhodamine B assay
SR = experiment: Growth inhibition of human SR cells at 10 uM by sulforhodamine B assay
A549 = experiment: Growth inhibition of human A549/ATCC cells at 10 uM by sulforhodamine B assay
HOP-62 = experiment: Growth inhibition of human HOP62 cells at 10 uM by sulforhodamine B assay
NCI-H226 = experiment: Growth inhibition of human NCI-H226 cells at 10 uM by sulforhodamine B assay
NCI-H23 = experiment: Growth inhibition of human NCI-H23 cells at 10 uM by sulforhodamine B assay
NCI-H322M = experiment: Growth inhibition of human NCI-H322M cells at 10 uM by sulforhodamine B assay
NCI-H460 = experiment: Growth inhibition of human NCI-H460 cells at 10 uM by sulforhodamine B assay
NCI-H522 = experiment: Growth inhibition of human NCI-H522 cells at 10 uM by sulforhodamine B assay
COLO 205 = experiment: Growth inhibition of human COLO205 cells at 10 uM by sulforhodamine B assay
HCT-116 = experiment: Growth inhibition of human HCT116 cells at 10 uM by sulforhodamine B assay
HCT-15 = experiment: Growth inhibition of human HCT15 cells at 10 uM by sulforhodamine B assay
HT-29 = experiment: Growth inhibition of human HT-29 cells at 10 uM by sulforhodamine B assay
KM12 = experiment: Growth inhibition of human KM12 cells at 10 uM by sulforhodamine B assay
SW-620 = experiment: Growth inhibition of human SW620 cells at 10 uM by sulforhodamine B assay
SF-268 = experiment: Growth inhibition of human SF268 cells at 10 uM by sulforhodamine B assay
SF-295 = experiment: Growth inhibition of human SF295 cells at 10 uM by sulforhodamine B assay
SF-539 = experiment: Growth inhibition of human SF539 cells at 10 uM by sulforhodamine B assay
SNB-19 = experiment: Growth inhibition of human SNB19 cells at 10 uM by sulforhodamine B assay
SNB-75 = experiment: Growth inhibition of human SNB75 cells at 10 uM by sulforhodamine B assay
U-251 = experiment: Growth inhibition of human U251 cells at 10 uM by sulforhodamine B assay
LOX IMVI = experiment: Growth inhibition of human LOXIMVI cells at 10 uM by sulforhodamine B assay
M14 = experiment: Growth inhibition of human M14 cells at 10 uM by sulforhodamine B assay
MDA-MB-435 = experiment: Growth inhibition of human MDA-MB-435 cells at 10 uM by sulforhodamine B assay
SK-MEL-2 = experiment: Growth inhibition of human SK-MEL-2 cells at 10 uM by sulforhodamine B assay
SK-MEL-28 = experiment: Growth inhibition of human SK-MEL-28 cells at 10 uM by sulforhodamine B assay
SK-MEL-5 = experiment: Growth inhibition of human SK-MEL-5 cells at 10 uM by sulforhodamine B assay
UACC-257 = experiment: Growth inhibition of human UACC257 cells at 10 uM by sulforhodamine B assay
IGROV-1 = experiment: Growth inhibition of human IGROV1 cells at 10 uM by sulforhodamine B assay
OVCAR-3 = experiment: Growth inhibition of human OVCAR3 cells at 10 uM by sulforhodamine B assay
OVCAR-4 = experiment: Growth inhibition of human OVCAR4 cells at 10 uM by sulforhodamine B assay
OVCAR-5 = experiment: Growth inhibition of human OVCAR5 cells at 10 uM by sulforhodamine B assay
OVCAR-8 = experiment: Growth inhibition of human OVCAR8 cells at 10 uM by sulforhodamine B assay
NCI/ADR-RES = experiment: Growth inhibition of human NCI/ADR-RES cells at 10 uM by sulforhodamine B assay
SK-OV-3 = experiment: Growth inhibition of human SKOV3 cells at 10 uM by sulforhodamine B assay
786-0 = experiment: Growth inhibition of human 786-0 cells at 10 uM by sulforhodamine B assay
A498 = experiment: Growth inhibition of human A498 cells at 10 uM by sulforhodamine B assay
ACHN = experiment: Growth inhibition of human ACHN cells at 10 uM by sulforhodamine B assay
CAKI-1 = experiment: Growth inhibition of human Caki1 cells at 10 uM by sulforhodamine B assay
SN12C = experiment: Growth inhibition of human SN12C cells at 10 uM by sulforhodamine B assay
UO-31 = experiment: Growth inhibition of human UO31 cells at 10 uM by sulforhodamine B assay
PC-3 = experiment: Growth inhibition of human PC3 cells at 10 uM by sulforhodamine B assay
DU-145 = experiment: Growth inhibition of human DU145 cells at 10 uM by sulforhodamine B assay
MCF7 = experiment: Growth inhibition of human MCF7 cells at 10 uM by sulforhodamine B assay
MDA-MB-231 = experiment: Growth inhibition of human MDA-MB-231 cells at 10 uM by sulforhodamine B assay
Hs-578T = experiment: Growth inhibition of human Hs 578T cells at 10 uM by sulforhodamine B assay
BT-549 = experiment: Growth inhibition of human BT549 cells at 10 uM by sulforhodamine B assay
T47D = experiment: Growth inhibition of human T47D cells at 10 uM by sulforhodamine B assay
MDA-MB-468 = experiment: Growth inhibition of human MDA-MB-468 cells at 10 uM by sulforhodamine B assay
TK-10 = experiment: Growth inhibition of human TK10 cells at 10 uM by sulforhodamine B assay
UACC-62 = experiment: Growth inhibition of human UACC62 cells at 10 uM by sulforhodamine B assay
HOP-92 = experiment: Growth inhibition of human HOP92 cells at 10 uM by sulforhodamine B assay
Malme-3M = experiment: Growth inhibition of human MALME-3M cells at 10 uM by sulforhodamine B assay
HCC 2998 = experiment: Growth inhibition of human HCC2998 cells at 10 uM by sulforhodamine B assay
RXF 393 = experiment: Growth inhibition of human RXF393 cells at 10 uM by sulforhodamine B assay

Measured: growth inhibition (GI)

COc1cc(-c2nc(-c3ccccc3)c(-c3ccccc3)[nH]2)ccc1OC1CCCC1
active: all assays above

COc1cc(-c2nc(-c3ccccc3)c(-c3ccccc3)n2Cc2ccccc2)ccc1OC1CCCCC1
active: all assays above
